Assay results taken from patent US11986532B2 (Arvinas Operations, Inc., priority 2021, dated 2024).
Read-outs that look alike come from different tables or passages of the source.

Target: T1, BCL6 (Homo sapiens, UniProt P41182)
T1 construct: endogenous in cells; host or cells: T47D breast cancer epithelial cells
Assay: Immunofluorescence protocol for high content imaging of BCL6 (degradation) in T47D cells, 3 days compound treatment
Format: cell-based
Conditions: for Dmax: read-out: Mean Dmax (%)** category; for DC50: read-out: Mean DC50 (nM)* category
In short: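 High content immunofluorescence imaging (10×, 4 fields/well) of BCL6 using rabbit primary antibody, Alexa-488 secondary, cell mask and Hoechst nuclear stain after PFA fixation. Before staining, T47D cells (7K/well) were exposed for 3 days at 37° C to 3-fold serial dilutions of compound, top final concentration 0.1 or 1 μM.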

[1] = T47D cells, 3 days compound treatment

SMILES | Dmax (T47D) [%] | DC50 [nM] | DC50 [1] [nM] | Dmax [1] [%]
CNC(=O)COc1cc2cc(Nc3nc(N4CCC(O[C@H]5C[C@H](N6CCCN(c7ccc8c(c7C)C(=O)N(C7CCC(=O)NC7=O)C8=O)CC6)C5)CC4)ncc3Cl)ccc2n(C(C)C)c1=O (stereo partly shown) [Compound 417, 2-({6-[(5-chloro-2-{4-[(1r,3r)-3-{4-[2-(2,6-dioxopiperidin-3-yl)-4-methyl-1,3-dioxo-2,3-dihydro-1H-isoindol-5-yl]-1,4-diazepan-1-yl}cyclobutoxy]piperidin-1-yl}pyrimidin-4-yl)amino]-2-oxo-1-(propan-2-yl)-1,2-dihydroquinolin-3-yl}oxy)-N-methylacetamide] | ≥ 70 | < 10 |  | 
CNC(=O)COc1cc2cc(Nc3nc(N4CCC(OC5CCC6(CC5)CN(c5c(F)ccc7c5CN(C5CCC(=O)NC5=O)C7=O)C6)CC4)ncc3Cl)ccc2n(C(C)C)c1=O (stereo not shown) [Compound 298, 2-{[6-({5-chloro-2-[4-({2-[2-(2,6-dioxopiperidin-3-yl)-5-fluoro-1-oxo-2,3-dihydro-1H-isoindol-4-yl]-2-azaspiro[3.5]nonan-7-yl}oxy)piperidin-1-yl]pyrimidin-4-yl}amino)-2-oxo-1-(propan-2-yl)-1,2-dihydroquinolin-3-yl]oxy}-N-methylacetamide] | 50 to 70 | < 10 |  | 
CNC(=O)COc1cc2cc(Nc3nc(N4CCC(O[C@H]5C[C@H](N6CCC7(CC6)CN(c6ccc8c(c6)CN(C6CCC(=O)NC6=O)C8=O)C7)C5)CC4)ncc3Cl)ccc2n(C(C)C)c1=O (stereo partly shown) [Compound 366, 2-({6-[(5-chloro-2-{4-[(1r,3r)-3-{2-[2-(2,6-dioxopiperidin-3-yl)-1-oxo-2,3-dihydro-1H-isoindol-5-yl]-2,7-diazaspiro [3.5]nonan-7-yl}cyclobutoxy]piperidin-1-yl}pyrimidin-4-yl)amino]-2-oxo-1-(propan-2-yl)-1,2-dihydroquinolin-3-yl}oxy)-N-methylacetamide] | ≥ 70 | < 10 |  | 
CNC(=O)COc1cc2cc(Nc3nc(N4CCC(CN5CCC6(CC5)CN(c5ccc7c(c5C)C(=O)N(C5CCC(=O)NC5=O)C7=O)C6)CC4)ncc3Cl)ccc2n(C(C)C)c1=O (stereo not shown) [Compound 358, 2-{[6-({5-chloro-2-[4-({2-[2-(2,6-dioxopiperidin-3-yl)-4-methyl-1,3-dioxo-2,3-dihydro-1H-isoindol-5-yl]-2,7-diazaspiro[3.5]nonan-7-yl}methyl)piperidin-1-yl]pyrimidin-4-yl}amino)-2-oxo-1-(propan-2-yl)-1,2-dihydroquinolin-3-yl]oxy}-N-methylacetamide] | 50 to 70 | < 10 |  | 
CNC(=O)COc1cc2cc(Nc3nc(N4CCC(O[C@H]5C[C@H](N6CCC(c7c(F)cc8c(c7F)CN(C7CCC(=O)NC7=O)C8=O)CC6)C5)CC4)ncc3Cl)ccc2n(C(C)C)c1=O (stereo partly shown) [Compound 116, 2-({6-[(5-chloro-2-{4-[(1r,3r)-3-{4-[2-(2,6-dioxopiperidin-3-yl)-4,6-difluoro-1-oxo-2,3-dihydro-1H-isoindol-5-yl]piperidin-1-yl}cyclobutoxy]piperidin-1-yl}pyrimidin-4-yl)amino]-2-oxo-1-(propan-2-yl)-1,2-dihydroquinolin-3-yl}oxy)-N-methylacetamide] |  |  | < 10 | 50 to 70
CNC(=O)COc1cc2cc(Nc3nc(N4CCC(O[C@H]5C[C@H](N6CCN(c7cc(F)c8c(c7F)CN(C7CCC(=O)NC7=O)C8=O)CC6)C5)CC4)ncc3Cl)ccc2n(C(C)C)c1=O (stereo partly shown) [Compound 273, 2-({6-[(5-chloro-2-{4-[(1r,3r)-3-{4-[2-(2,6-dioxopiperidin-3-yl)-4,7-difluoro-1-oxo-2,3-dihydro-1H-isoindol-5-yl]piperazin-1-yl}cyclobutoxy]piperidin-1-yl}pyrimidin-4-yl)amino]-2-oxo-1-(propan-2-yl)-1,2-dihydroquinolin-3-yl}oxy)-N-methylacetamide] | 50 to 70 | < 10 |  | 
CNC(=O)COc1cc2cc(Nc3nc(N4CCC(O[C@H]5C[C@H](N6CCC(c7cc(F)c8c(c7)C(=O)N(C7CCC(=O)NC7=O)C8)C(F)C6)C5)CC4)ncc3Cl)ccc2n(C(C)C)c1=O (stereo partly shown) [Compound 281, 2-({6-[(5-chloro-2-{4-[(1r,3r)-3-{4-[2-(2,6-dioxopiperidin-3-yl)-7-fluoro-3-oxo-2,3-dihydro-1H-isoindol-5-yl]-3-fluoropiperidin-1-yl}cyclobutoxy]piperidin-1-yl}pyrimidin-4-yl)amino]-2-oxo-1-(propan-2-yl)-1,2-dihydroquinolin-3-yl}oxy)-N-methylacetamide] | < 50 | 10 to 50 |  | 
CNC(=O)COc1cc2cc(Nc3nc(N4CCC(CN5CCC6(CCN(c7c(F)ccc8c7C(=O)N(C7CCC(=O)NC7=O)C8=O)C6)C5)CC4)ncc3Cl)ccc2n(C(C)C)c1=O (stereo not shown) [Compound 139, 2-{[6-({5-chloro-2-[4-({7-[2-(2,6-dioxopiperidin-3-yl)-5-fluoro-1,3-dioxo-2,3-dihydro-1H-isoindol-4-yl]-2,7-diazaspiro[4.4]nonan-2-yl}methyl)piperidin-1-yl]pyrimidin-4-yl}amino)-2-oxo-1-(propan-2-yl)-1,2-dihydroquinolin-3-yl]oxy}-N-methylacetamide] |  |  | < 10 | 50 to 70
CNC(=O)COc1cc2cc(Nc3nc(N4CCC(CN5CCC6(CN(c7cccc8c7C(=O)N(C7CCC(=O)NC7=O)C8=O)C6)C(F)C5)CC4)ncc3Cl)ccc2n(C(C)C)c1=O (stereo not shown) [Compound 325, 2-{[6-({5-chloro-2-[4-({2-[2-(2,6-dioxopiperidin-3-yl)-1,3-dioxo-2,3-dihydro-1H-isoindol-4-yl]-5-fluoro-2,7-diazaspiro[3.5]nonan-7-yl}methyl)piperidin-1-yl]pyrimidin-4-yl}amino)-2-oxo-1-(propan-2-yl)-1,2-dihydroquinolin-3-yl]oxy}-N-methylacetamide] | 50 to 70 | < 10 |  | 
CNC(=O)COc1cc2cc(Nc3nc(N4CCC(O[C@H]5C[C@H](N6CCC7(CCN(c8ccc9c(c8)CN(C8CCC(=O)NC8=O)C9=O)C7)CC6)C5)CC4)ncc3Cl)ccc2n(C(C)C)c1=O (stereo partly shown) [Compound 361, 2-({6-[(5-chloro-2-{4-[(1r,3r)-3-{2-[2-(2,6-dioxopiperidin-3-yl)-1-oxo-2,3-dihydro-1H-isoindol-5-yl]-2,8-diazaspiro [4.5]decan-8-yl}cyclobutoxy]piperidin-1-yl}pyrimidin-4-yl)amino]-2-oxo-1-(propan-2-yl)-1,2-dihydroquinolin-3-yl}oxy)-N-methylacetamide] | 50 to 70 | < 10 |  | 
CNC(=O)COc1cc2cc(Nc3cc(N4CCC(F)(CN5CCC6(CC5)CN(c5ccc7c(c5)CN(C5CCC(=O)NC5=O)C7=O)C6(C)C)CC4)ncc3Cl)ccc2n(C(C)C)c1=O (stereo not shown) [Compound 240, 2-{[6-({5-chloro-2-[4-({2-[2-(2,6-dioxopiperidin-3-yl)-1-oxo-2,3-dihydro-1H-isoindol-5-yl]-1,1-dimethyl-2,7-diazaspiro[3.5]nonan-7-yl}methyl)-4-fluoropiperidin-1-yl]pyridin-4-yl}amino)-2-oxo-1-(propan-2-yl)-1,2-dihydroquinolin-3-yl]oxy}-N-methylacetamide] | ≥ 70 | < 10 |  | 
